Source: US6417212B1, “Modulators of peroxisome proliferator activated receptors” (Eli Lilly & Company, priority 1999, dated 2002)

Key:
[1] = biological target: T1, huPPARγ (Homo sapiens, UniProt P37231); assay: Cotransfection assay in CV-1 cells, huPPARγ; type: cell-based; design: expressed in transfected cells; host or cells: CV-1 cells; settings: AOX PPRE luciferase reporter, relative to agonist reference molecule, read-out: huPPARγ CTF Efficacy
T1 sequence (P37231 1-505): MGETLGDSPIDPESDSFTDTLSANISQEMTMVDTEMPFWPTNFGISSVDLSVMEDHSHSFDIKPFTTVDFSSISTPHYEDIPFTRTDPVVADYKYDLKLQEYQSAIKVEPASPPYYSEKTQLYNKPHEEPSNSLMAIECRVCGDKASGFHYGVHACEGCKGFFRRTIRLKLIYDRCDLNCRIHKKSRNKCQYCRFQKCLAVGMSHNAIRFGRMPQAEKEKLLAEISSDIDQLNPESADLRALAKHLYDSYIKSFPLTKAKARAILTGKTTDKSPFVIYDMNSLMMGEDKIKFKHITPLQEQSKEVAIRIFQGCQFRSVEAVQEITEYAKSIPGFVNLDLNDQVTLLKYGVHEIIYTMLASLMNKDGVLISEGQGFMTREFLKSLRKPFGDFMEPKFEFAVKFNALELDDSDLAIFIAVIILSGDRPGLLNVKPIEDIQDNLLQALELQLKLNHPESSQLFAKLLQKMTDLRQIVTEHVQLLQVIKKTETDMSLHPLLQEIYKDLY
T1 sequence (P19793 1-462 partner): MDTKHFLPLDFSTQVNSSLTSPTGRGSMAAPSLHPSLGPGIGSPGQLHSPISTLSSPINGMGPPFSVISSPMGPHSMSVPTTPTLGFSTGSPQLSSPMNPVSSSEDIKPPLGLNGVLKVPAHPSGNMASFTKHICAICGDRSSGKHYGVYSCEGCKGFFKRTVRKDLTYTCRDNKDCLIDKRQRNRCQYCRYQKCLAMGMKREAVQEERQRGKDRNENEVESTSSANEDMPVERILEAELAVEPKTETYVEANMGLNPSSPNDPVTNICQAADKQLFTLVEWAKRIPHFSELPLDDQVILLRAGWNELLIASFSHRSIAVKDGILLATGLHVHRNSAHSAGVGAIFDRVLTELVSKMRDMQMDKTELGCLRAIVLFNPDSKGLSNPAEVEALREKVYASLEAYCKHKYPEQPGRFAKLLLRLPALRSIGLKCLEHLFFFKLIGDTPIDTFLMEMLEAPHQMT
Protocol: DNA-dependent binding (ABCD binding) was carried out using SPA technology with PPAR receptors. […] Cotransfection assays were carried out in CV-1 cells. The reporter plasmid contained an acylCoA oxidase (AOX) PPRE and TK promoter upstream of the luciferase reporter cDNA. Appropriate PPARs and RXRα were constitutively expressed using plasmids containing the CMV promoter. […] In order to eliminate such interference, a GAL4 chimeric system was used in which the DNA binding domain of the transfected PPAR was replaced by that of GAL4, and the GAL4 response element was utilized in place of the AOX PPRE. […] Efficacies were determined by computer fit to a concentration-response curve, or in some cases at a single high concentration of agonist (10 μM). For binding or cotransfection studies with receptors other than PPARs, similar assays were carried out using appropriate ligands, receptors, reporter constructs, etc., for that particular receptor.
(§1) These studies were carried out to evaluate the ability of compounds of the invention to bind to and/or activate various nuclear transcription factors, particularly huPPARα (“hu” indicates “human”) and huPPARγ. These studies provide in vitro data concerning efficacy and selectivity of compounds of the invention. Furthermore, binding and cotransfection data for compounds of the invention were compared with corresponding data for marketed compounds that act on either huPPARα or huPPARγ.

[2] = biological target: T2, huPPARα (Homo sapiens, UniProt Q07869); assay: DNA-dependent binding (ABCD binding), SPA, huPPARα; settings: displacement of tritium-labeled PPARα agonist radioligand
T2 sequence (Q07869 1-468): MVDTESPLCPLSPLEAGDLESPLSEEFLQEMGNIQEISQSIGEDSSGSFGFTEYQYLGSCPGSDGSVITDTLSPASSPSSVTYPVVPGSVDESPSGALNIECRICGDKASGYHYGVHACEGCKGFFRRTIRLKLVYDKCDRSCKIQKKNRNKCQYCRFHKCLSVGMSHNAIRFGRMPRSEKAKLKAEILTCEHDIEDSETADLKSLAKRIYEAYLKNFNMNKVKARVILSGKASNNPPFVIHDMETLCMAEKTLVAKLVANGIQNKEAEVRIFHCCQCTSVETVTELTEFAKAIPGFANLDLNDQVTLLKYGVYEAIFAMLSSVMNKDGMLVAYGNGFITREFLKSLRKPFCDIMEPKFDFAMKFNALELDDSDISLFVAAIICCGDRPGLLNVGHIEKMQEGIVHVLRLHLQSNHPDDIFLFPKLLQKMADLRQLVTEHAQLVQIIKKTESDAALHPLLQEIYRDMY
T2 sequence (P19793 1-462 partner): T1 sequence (P19793 1-462 partner)
Protocol: DNA-dependent binding (ABCD binding) was carried out using SPA technology with PPAR receptors. Tritium-labeled PPARγ and PPARα agonists were used as radioligands for generating displacement curves and IC50 values with compounds of the invention. Cotransfection assays were carried out in CV-1 cells. The reporter plasmid contained an acylCoA oxidase (AOX) PPRE and TK promoter upstream of the luciferase reporter cDNA. Appropriate PPARs and RXRα were constitutively expressed using plasmids containing the CMV promoter. […] In order to eliminate such interference, a GAL4 chimeric system was used in which the DNA binding domain of the transfected PPAR was replaced by that of GAL4, and the GAL4 response element was utilized in place of the AOX PPRE. Cotransfection efficacy was determined relative to PPARα agonist and […] reference molecules. Efficacies were determined by computer fit to a concentration-response curve, or in some cases at a single high concentration of agonist (10 μM). For binding or cotransfection studies with receptors other than PPARs, similar assays were carried out using appropriate ligands, receptors, reporter constructs, etc., for that particular receptor.
as §1

Emax [1] [%]	IC50 [2] [µM]	SMILES
84	0.155	Cc1oc(-c2ccc(-c3c(F)cccc3F)cc2)nc1CCOc1ccc(OC(C)(C)C(=O)O)cc1 [Example 14, 2-(4-{2-[2-(2′,6′-Difluorobiphenyl-4-yl)-5-methyloxazol-4-yl]-ethoxy}-phenoxy)-2-methylpropionic acid]
70	0.097	Cc1oc(-c2ccc(-c3ccccc3)cc2)nc1CCOc1cccc(OC(C)(C)C(=O)O)c1 [Example 21, 2-{3-[2-(2-Biphenyl-4-yl-5-methyloxazol-4-yl)ethoxy]phenoxy}-2-methylpropionic acid]
142	0.447	Cc1sc(-c2cccc(-c3ccccc3)c2)nc1CCOc1ccc(OC(C)(C)C(=O)O)cc1 [Example 46, 2-{4-[2-(2-Biphenyl-3-yl-5-methyl-thiazol-4-yl)-ethoxy]-phenoxy}-2-methyl-propionic acid]
